Data as given in patent publication US6380239B1, “Substituted 1-oxo- and 1,3-dioxoisoindoline and method of reducing inflammatory cytokine levels” (Celgene Corporation, priority 1999, dated 2002).

melting point [°C] | Structure (SMILES)
183 to 185 | Nc1cccc2c1CN(C(CCC(=O)O)C(=O)O)C2=O (stereo not shown) [Example 14, 1-(4-Amino-1-oxoisoindolin-2-yl)propane-1,3-dicarboxylic acid]
198 to 200 | Nc1cccc2c1C(=O)N(C(CCC(=O)O)C(=O)O)C2=O (stereo not shown) [Example 16, 1-(4-Amino-1,3-dioxoisoindolin-2-yl)propane-1,3-dicarboxylic acid]
182 to 184 | NC(=O)CCC(C(=O)O)N1C(=O)c2cccc([N+](=O)[O-])c2C1=O (stereo not shown) [Example 17, 2-(4-Nitro-1,3-dioxoisoindolin-2-yl)-4-carbamoylbutanoic acid]
165 to 167 | NC(=O)CCC(C(=O)O)N1C(=O)c2cccc(N)c2C1=O (stereo not shown) [Example 18, 2-(4-Amino-1,3-dioxoisoindolin-2-yl)-4-carbamoylbutanoic acid]
